Experimental data published in ChEMBL document CHEMBL1932968, “Cyclic amino acid linkers stabilizing key loops of brain derived neurotrophic factor” (Bioorg Med Chem Lett, 2012).
Active and inactive are the calls of the source. The rule behind the calls is not given here. *1 amine or outer side, *2 acyl side, *3 side chain or, on linkers, in order; H or OH if unused. Where a SMILES comes first, the peptide text is derived from it. [ ]: non-standard residue; d: D form. ACHC(1S,2S) = O=C([C@H]1CCCC[C@@H]1N[*:1])[*:2]; X2 = C[C@@]1(C(=O)[*:2])CCN1[*:1]; X1 = C[C@]1(C(=O)[*:2])CCN1[*:1]; Aze = O=C(O)[C@@H]1CCN1; βAla = NCCC(=O)O

What was measured:
[1] = biological target: BDNF/NT-3 growth factors receptor (Rattus norvegicus) (UniProt Q63604); test: Agonist activity at TrkB in E18 Sprague-Dawley rat hippocampal neurons assessed as induction of TrkB autophosphorylation at Tyr490 at 100 uM after 1 hr by Western blotting analysis; assay type: functional, tissue-based; conditions: Hippocampus
[2] = biological target: BDNF/NT-3 growth factors receptor (Rattus norvegicus) (UniProt Q63604); test: Antagonist activity at TrkB in E18 Sprague-Dawley rat hippocampal neurons assessed as inhibition of BDNF-induced TrkB phosphorylation at Tyr490 at 100 uM preincubated for 1 hr followed by BDNF induction for 10 mins by Western blotting analysis; assay type: functional, tissue-based; conditions: Hippocampus

Sequence of BDNF/NT-3 growth factors receptor (Rattus norvegicus) (Q63604 whole entry): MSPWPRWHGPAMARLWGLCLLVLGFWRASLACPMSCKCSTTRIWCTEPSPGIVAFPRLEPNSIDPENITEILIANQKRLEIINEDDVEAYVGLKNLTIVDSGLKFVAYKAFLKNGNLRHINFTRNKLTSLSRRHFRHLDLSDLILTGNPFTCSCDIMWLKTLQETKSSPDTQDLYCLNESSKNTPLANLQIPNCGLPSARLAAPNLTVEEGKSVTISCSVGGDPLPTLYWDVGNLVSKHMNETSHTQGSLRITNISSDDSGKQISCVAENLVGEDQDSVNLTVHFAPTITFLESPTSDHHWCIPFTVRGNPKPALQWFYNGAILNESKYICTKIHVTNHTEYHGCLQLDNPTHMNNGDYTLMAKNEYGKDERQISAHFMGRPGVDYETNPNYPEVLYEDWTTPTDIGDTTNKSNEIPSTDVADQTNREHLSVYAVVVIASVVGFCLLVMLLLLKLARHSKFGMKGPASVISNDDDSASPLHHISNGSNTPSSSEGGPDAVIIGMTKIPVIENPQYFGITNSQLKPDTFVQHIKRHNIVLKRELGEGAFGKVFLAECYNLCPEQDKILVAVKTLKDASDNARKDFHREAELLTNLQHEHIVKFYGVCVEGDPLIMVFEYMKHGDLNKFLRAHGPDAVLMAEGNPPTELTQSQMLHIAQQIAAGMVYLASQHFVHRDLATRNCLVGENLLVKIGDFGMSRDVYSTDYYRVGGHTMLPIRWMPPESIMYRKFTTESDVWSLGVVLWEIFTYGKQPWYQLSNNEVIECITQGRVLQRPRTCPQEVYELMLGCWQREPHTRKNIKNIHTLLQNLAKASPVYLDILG

Row | Activity [1] | inhibition [2] | SMILES
1 | inactive | inactive | CC(C)[C@@H]1NC(=O)[C@@]2(C)CCN2C(=O)CCNC(=O)[C@H](CCCCN)NC(=O)[C@H](CO)NC1=O
2 | inactive | inactive | CC(C)[C@@H]1NC(=O)[C@H]2CCCC[C@@H]2NC(=O)CCNC(=O)[C@H](CCCCN)NC(=O)[C@H](CO)NC1=O
3 | inactive | inactive | CC(C)[C@@H]1NC(=O)[C@]2(C)CCN2C(=O)CCNC(=O)[C@H](CCCCN)NC(=O)[C@H](CO)NC1=O
4 | inactive | Active | N=C(N)NCCC[C@@H]1NC(=O)[C@H](CCCCN)NC(=O)[C@H](CCCCN)NC(=O)[C@H](CO)NC(=O)[C@H](CC(=O)O)NC(=O)[C@H]2CCCC[C@@H]2NC1=O (cyclo(DSKKR[ACHC(1S,2S)]))
5 | inactive | Active | N=C(N)NCCC[C@@H]1NC(=O)[C@H]2CCCC[C@@H]2NC(=O)[C@H](CC(=O)O)NC(=O)[C@H](CO)NC(=O)[C@H](CCCCN)NC(=O)[C@H](CCCCN)NC(=O)[C@H](CCCNC(=N)N)NC(=O)[C@H]2CCCC[C@@H]2NC(=O)[C@H](CC(=O)O)NC(=O)[C@H](CO)NC(=O)[C@H](CCCCN)NC(=O)[C@H](CCCCN)NC1=O (cyclo(D[ACHC(1S,2S)]RKKSD[ACHC(1S,2S)]RKKS))
6 | inactive | inactive | CC(C)[C@@H]1NC(=O)[C@H]2CCCC[C@@H]2NC(=O)CNC(=O)[C@H](CCCCN)NC(=O)[C@H](CO)NC1=O (cyclo(G[ACHC(1S,2S)]VSK))
7 | inactive | – | CC(C)[C@@H]1NC(=O)[C@H]2CCCC[C@@H]2NC(=O)CNC(=O)[C@H](CCCCN)NC(=O)[C@H](CO)NC(=O)[C@H](C(C)C)NC(=O)[C@H]2CCCC[C@@H]2NC(=O)CNC(=O)[C@H](CCCCN)NC(=O)[C@H](CO)NC1=O (cyclo(G[ACHC(1S,2S)]VSKG[ACHC(1S,2S)]VSK))
8 | inactive | Active | CC(C)[C@@H]1NC(=O)[C@]2(C)CCN2C(=O)CNC(=O)[C@H](CCCCN)NC(=O)[C@H](CO)NC(=O)[C@H](C(C)C)NC(=O)[C@@]2(C)CCN2C(=O)CNC(=O)[C@H](CCCCN)NC(=O)[C@H](CO)NC1=O (cyclo(G[X1]VSKG[X2]VSK))
9 | inactive | – | CC(C)[C@@H]1NC(=O)[C@H]2CCCC[C@@H]2NC(=O)CCNC(=O)[C@H](CCCCN)NC(=O)[C@H](CO)NC(=O)[C@H](C(C)C)NC(=O)[C@H]2CCCC[C@@H]2NC(=O)CCNC(=O)[C@H](CCCCN)NC(=O)[C@H](CO)NC1=O (cyclo(K[βAla][ACHC(1S,2S)]VSK[βAla][ACHC(1S,2S)]VS))
10 | inactive | inactive | CC(C)[C@@H]1NC(=O)[C@@H]2CCN2C(=O)CNC(=O)[C@H](CCCCN)NC(=O)[C@H](CO)NC1=O (cyclo([Aze]VSKG))
11 | inactive | – | CC(C)[C@@H]1NC(=O)[C@@H]2CCN2C(=O)CNC(=O)[C@H](CCCCN)NC(=O)[C@H](CO)NC(=O)[C@H](C(C)C)NC(=O)[C@@H]2CCN2C(=O)CNC(=O)[C@H](CCCCN)NC(=O)[C@H](CO)NC1=O (cyclo([Aze]VSKG[Aze]VSKG))
12 | inactive | inactive | CC(C)[C@@H]1NC(=O)[C@@H]2CCN2C(=O)CCNC(=O)[C@H](CCCCN)NC(=O)[C@H](CO)NC1=O (cyclo([Aze]VSK[βAla]))
13 | inactive | inactive | CC(C)[C@@H]1NC(=O)C2(C)CCN2C(=O)CNC(=O)[C@H](CCCCN)NC(=O)[C@H](CO)NC1=O (mixture of isomers)
